Reference: patent publication US20250059139A1, “COMPOUNDS FOR TREATMENT OF CANCER” (THE JOHNS HOPKINS UNIVERSITY, priority 2021, published 2025)

What was measured:
[1] = molecular target: T1, fl-HDAC4 (Homo sapiens, UniProt P56524); experiment: HDAC4 enzymatic assay with Lys(Tfa)-AMC substrate; format: biochemical
T1 construct: Full-length (fl) [A.A. 1-1082] recombinant human histone deacetylase 4 (rhHDAC4) protein; FLAG (N); GST (given as 'with or without'); made in house; host or cells: HEK293-T
T1 sequence (P56524 whole entry): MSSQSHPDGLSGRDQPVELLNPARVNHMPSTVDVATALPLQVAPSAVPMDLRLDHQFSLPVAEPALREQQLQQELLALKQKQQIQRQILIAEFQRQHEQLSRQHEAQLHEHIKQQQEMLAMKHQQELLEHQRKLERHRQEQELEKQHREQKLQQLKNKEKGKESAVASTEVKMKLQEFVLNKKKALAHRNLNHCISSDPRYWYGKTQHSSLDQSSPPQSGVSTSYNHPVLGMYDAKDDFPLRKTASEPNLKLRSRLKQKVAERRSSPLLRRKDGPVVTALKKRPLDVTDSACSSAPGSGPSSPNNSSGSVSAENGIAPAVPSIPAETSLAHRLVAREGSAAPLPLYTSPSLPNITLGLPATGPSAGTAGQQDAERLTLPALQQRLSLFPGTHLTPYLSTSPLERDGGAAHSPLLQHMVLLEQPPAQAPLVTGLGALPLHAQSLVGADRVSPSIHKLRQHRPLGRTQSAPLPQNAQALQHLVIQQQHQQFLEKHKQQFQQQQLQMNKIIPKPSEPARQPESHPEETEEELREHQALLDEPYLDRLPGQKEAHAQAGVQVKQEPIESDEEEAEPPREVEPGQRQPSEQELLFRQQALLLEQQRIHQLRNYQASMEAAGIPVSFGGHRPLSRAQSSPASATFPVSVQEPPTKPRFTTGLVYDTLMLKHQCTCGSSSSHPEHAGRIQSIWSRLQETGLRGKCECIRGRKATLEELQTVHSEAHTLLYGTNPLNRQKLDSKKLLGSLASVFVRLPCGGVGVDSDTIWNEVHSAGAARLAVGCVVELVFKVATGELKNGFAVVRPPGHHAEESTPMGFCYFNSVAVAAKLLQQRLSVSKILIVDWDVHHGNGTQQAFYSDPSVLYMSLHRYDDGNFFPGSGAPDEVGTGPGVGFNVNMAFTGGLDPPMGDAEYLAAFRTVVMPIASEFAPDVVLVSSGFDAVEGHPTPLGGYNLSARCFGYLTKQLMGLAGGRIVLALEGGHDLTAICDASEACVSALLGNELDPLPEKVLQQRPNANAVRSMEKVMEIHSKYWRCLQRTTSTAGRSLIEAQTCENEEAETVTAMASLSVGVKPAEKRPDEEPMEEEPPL
Method: HDAC4 Enzymatic Assay. HDAC4 activity of the various recombinant forms used through these studies was assayed using the small non-protein Lys(Tfa)-AMC as described previously (Bottomley et al. J. Biol. Chem. 2008, 283:26694-26704). The specificity of this assay is documented via its inhibition by a small molecule trifluoroacetylthiophene-trifluoromethylketone derivative (TFT-PIP) described previously (id.).
Thus, TasQ's inhibition of HDAC4/NCoR1 formation involves only its binding to HDAC4. To resolve whether such TasQ binding involves the ZCD vs. ZRD in HDAC4, we took advantage of the fact that while HDAC4 has only marginal deacetylase activity against acetylated lysine-containing proteins, it can deacetylate a small non-protein trifluoroacetamide substrate (a.k.a., Lys(Tfa)-AMC). This reaction is inhibited by a small molecule trifluoroacetylthiophene-trifluoromethylketone derivative [a.k.a., TFT-PIP (FIG. 16)] due to its binding to the catalytic Zn^2+ in the ZCD, which locks the ZRD in the open conformation (Bottomley 2008).

[2] = test system: CWR-22Rv1 parental wild type cells; experiment: In vivo growth of CWR-22Rv1 parental wild type xenografts; set-up: species or system human; details: daily oral 10 mg/kg/d
Source text: (§1) Prostate Cancer Models. The source, history, and characteristics of the human prostate cancer cell lines and PDXs used, as well as cell culture conditions for their in vitro maintenance and the in vivo protocol for xenograft growth in triple immune-deficient NSG (i.e. NOD.Cg-PrkdcScidIl2rgtmlWji/Szj), adult (>8 week old) male mice obtained from the Sidney Kimmel Comprehensive Cancer Center (SKCCC) Animal Core Facility are described previously (Isaacs 2013; Brennen et al. JCI Insight. 2021, 6(8):e146827; Zhu et al. Oncogene 2020, 39(45): 6935-6949). […] In vitro growth curves were determined as described (Isaacs 2013). In vivo growth response to oral daily TasQ (10 mg/kg/d) of TRAMP-C2 mouse prostate cancers was evaluated in C57BL/6J syngeneic wild type vs. NOX-2 vs. iNOS null male mice obtained from Jackson Laboratory (Bar Harbor, ME). Growth response to oral daily TasQ (10 mg/kg/d) of TRAMP-C2 and B6CaP mouse prostate cancers was also evaluated in S100A9 null C57BL′6J male mice obtained from Dmitry Gabrilovich (Wistar Institute). […] In vitro growth curves were determined as described (Isaacs 2013). Growth response to daily oral TasQ vs. ESATA-20 (both at 10 mg/kg/d) of Myc-CaP-CR mouse prostate cancer was evaluated in syngeneic FVB/NJ castrate male mice from Jackson Laboratory. […]

[3] = test system: CYP1A1; experiment: CYP1A1 mRNA induction in LNCaP cells (RT-PCR); format: cell-based; details: human, read-out: EC50 as a CYP1A inducer in LNCaP cells
Source text: Real-time quantitative PCR (Q-PCR) analysis. […] ID NO: 2) and […] ID NO: 3). […] ID NO: 4) and […] ID NO: 5).

[4] = test system: LNCaP and LNCaP/AHR-KD xenografts; experiment: In vivo growth of LNCaP vs. LNCaP/AHR-KD xenografts in intact male hosts; set-up: species or system human; details: daily oral 10 mg/kg/d from day 53 post-inoculation
Source text: as §1

[5] = test system: prostate cancer xenografts; details: daily oral 10 mg/kg/d; cited from earlier work

COc1cccc2c1c(O)c(C(=O)N(C)c1ccc(C(F)(F)F)cc1)c(=O)n2C [TasQ, Tasquinimod]
effect on enzymatic activity of fl-HDAC4 [1]: did not inhibit
growth inhibition of wild type xenografts [2]: > 80%
EC50 [3]: 1 µM
growth response of LNCaP and LNCaP/AHR-KD xenografts [4]: equally inhibited
enhancement of hypoxia [5]: > 2 fold
pO2 in the TME [5]: 1.4+/−1.0 mmHg
